Patent publication US12691175B2, “Drug transdermal delivery system” (Xiamen University, priority 2019, dated 2026)

Key:
[1] = Staining of topical penetration sites of the skin with gentian violet solution; parameters: species or system nude mouse
Description: Staining of topical penetration sites of the skin: the nude mouse skin topically pretreated by three groups, including the sonophoresis group, the 2 mg spicule group, and the group using sonophoresis and then using the spicules (the method is the same as the aforementioned method), a gentian violet solution is added into the donor compartment, stained for 24 hours, and washed by an ethanol solution, and the residue liquid on the surface is absorbed with absorbent paper, a penetration situation of a surface of the stratum corneum layer for the staining solution is observed, the stratum corneum layer and the epidermal layer of the skin are then scrapped by a blade, and a penetration situation of the dermis layer for the staining solution is observed.

venous thrombus = experiment: Rabbit ear thrombus model, topical low-molecular-weight heparin therapy; format: in vivo, New Zealand rabbit; conditions: 48 hours; for state of thrombus in blood vessel (slice, FIG. 7): 300 U/kg topical
Description: An experimental method: • A topical injection of thrombin is used to establish an animal model of a rabbit ear thrombus: hair of an ear of the New Zealand rabbit is carefully shaven off, a blood vessel section from an external ear vein with a length of about 2 cm and having fewer branches is selected, 40 U of the thrombin is injected into the blood vessel section, and a hemostatic clip is used to block a blood flow of the blood vessel section at a proximal end of a heart. After 2 hours, the blood is completely coagulated to form a venous thrombus, and the hemostatic clip is then loosen. A length of the venous thrombus is measured and recorded, and the rabbit ear successfully modeled is sliced into a slice by the cryostat microtome. After the slice is stained by a hematoxylin and eosin (HE) tissue staining method and fixed by the resin, and the slice is mounted for observation. With respect to the various administration methods, the rabbits successfully modeled are divided into a therapy group for a proximal venous thrombus and a therapy group for a distal venous thrombus, and the rabbits are topically treated by the low-molecular-weight heparin (300 U/kg rabbit body weight) for therapy. […] A pretreatment method is the same as described with respect to in vitro.

Molecule | infiltration of staining solution into the dermis layer ([1]; sonophoresis alone or spicules alone, stained 24 hours (FIGS. 6D and 6E)) | infiltration of staining solution into the dermis layer ([1]; sonophoresis and spicules, stained 24 hours, stratum corneum and epidermal layer scraped off (FIG. 6F)) | state of thrombus in blood vessel (slice, FIG. 7) (venous thrombus; sonophoresis then spicules) | state of thrombus in blood vessel (slice, FIG. 7) (venous thrombus; spicules alone) | thrombus dissolvability degree compared with intravenous injection (FIG. 8B) (venous thrombus; distal venous thrombus, sonophoresis then spicules at distal end) | thrombus length variation (FIG. 8A) (venous thrombus; proximal venous thrombus, sonophoresis then spicules)
CN(C)c1ccc(C(=C2C=CC(=[N+](C)C)C=C2)c2ccc(N(C)C)cc2)cc1 [staining solution, gentian violet] | almost no residue staining solution in the dermis layer | a large amount of the staining solution can still infiltrate into the dermis layer |  |  |  | 
dalteparin [low-molecular-weight heparin] |  |  | almost completely dissolved | not completely dissolved | no significant difference | basically dissolved
